Laboratory results as given in patent US8557829B2, “Use of allopurinol for the treatment of palmar plantar erythrodysesthesia” (Nobera Pharma, S.L., priority 2006, dated 2013).

What was measured:
[1] = tested on: Patients suffering from colon cancer or breast cancer; assay: Example 3: appearance of PPE under standard chemotherapy; format: in vivo, human
Protocol: (§1) Patients suffering from colon cancer or breast cancer were treated from January 2005 up to March 2007 with the following standard chemotherapy: • AIO protocol: high dose infusion 5FU24H+leucovorin • FOLFOX 4 protocol: day 1: oxaliplatin, 85 mg/m2, and leucovorin, 200 mg/m2, concurrently i.v., then 5-FU, 400 mg/m2 i.v. bolus followed by 600 mg/m2 continuous i.v.; day 2: leucovorin, 200 mg/m2 i.v., then 5-FU, 400 mg/m2 i.v. bolus, followed by 600 mg/m2 continuous i.v.; repeated every 2 weeks. • Oral capecitabine.
Palmar plantar erythrodysesthesia (PPE) appeared in 30% of the patients treated with 5-FU and in 66% of those treated with capecitabine.

[2] = cited from earlier work
[3] = target: T1, deoxythymidine phosphorylase (thymidine phosphorylase, TP) (Homo sapiens, UniProt P19971); conditions: Gallo et al. J Biological Chemistry 1968; cited from earlier work
T1 sequence (P19971 11-482): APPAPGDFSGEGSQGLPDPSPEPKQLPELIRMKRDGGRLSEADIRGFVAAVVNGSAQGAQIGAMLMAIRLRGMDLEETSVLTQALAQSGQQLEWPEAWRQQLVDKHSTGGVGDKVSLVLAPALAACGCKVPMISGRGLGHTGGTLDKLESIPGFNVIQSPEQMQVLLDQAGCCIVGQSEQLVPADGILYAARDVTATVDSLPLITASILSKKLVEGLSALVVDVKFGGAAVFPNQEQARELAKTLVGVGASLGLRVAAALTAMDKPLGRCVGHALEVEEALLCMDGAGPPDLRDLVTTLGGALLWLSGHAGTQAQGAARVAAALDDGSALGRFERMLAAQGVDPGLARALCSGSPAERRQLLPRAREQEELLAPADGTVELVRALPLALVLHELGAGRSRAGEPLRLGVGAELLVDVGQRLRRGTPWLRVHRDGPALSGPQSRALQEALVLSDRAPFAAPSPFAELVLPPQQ

[4] = target: uridine phosphorylase (Homo sapiens, UniProt Q16831); conditions: Gallo et al. J Biological Chemistry 1968; cited from earlier work
[5] = tested on: Patients with colorectal carcinoma; assay: Example 2: treatment of palmar plantar erythrodysesthesia with the allopurinol cream; format: in vivo, human
Protocol: Patients with colorectal carcinoma were administered chemotherapy (adjuvant or palliative) following the usual protocols. As soon as the first symptoms of palmar planar erythrodysesthesia appeared after starting chemotherapy, the patients were administered the cream prepared in example 1.
The characteristics of the patients treated with the cream and the chemotherapeutic regimen that they were administered were as follow:
Patients with advanced or metastatic colorectal cancer: 8
Patients with resected stage III colon cancer: 2
• 5FU+LV bolus (Mayo protocol): 1 patient • 5FU+LV infusional (AIO protocol): 7 patients • Capecitabine monotherapy: 2 patients
The cream was applied 5 times per day, to the palms and soles, as long as the chemotherapy was applied. The frequency was reduced in between cycles and increased shortly before and during chemotherapy administration.

[6] = tested on: Patients suffering from colon cancer or breast cancer; assay: Example 3: response of PPE to allopurinol cream treatment; format: in vivo, human
Protocol: as §1
The cream comprising allopurinol as prepared in example 1 was topically applied by the patients 4-5 times a day to the hands and feet. In case of no response to this treatment and persistence of PPE symptoms, the dosage of chemotherapy was reduced and some cases interrupted.

[7] = tested on: cancer patients; conditions: colon / colorectal cancer, versus fluorouracil+leucovorin; cited from earlier work
[8] = standard chemotherapy, before allopurinol treatment
[9] = 2 PPE patients on FOLFOX-4 chemotherapy
[10] = 3% cream 4-5 times a day to hands and feet
[11] = 5 PPE patients on AIO chemotherapy
[12] = 8 PPE patients on Capecitabine chemotherapy
[13] = all 15 PPE patients, 3% cream 4-5 times a day
[14] = all 15 PPE patients, 3% cream 4-5 times a day, listed as allopiirinol

Chain of uridine phosphorylase (Q16831 whole entry): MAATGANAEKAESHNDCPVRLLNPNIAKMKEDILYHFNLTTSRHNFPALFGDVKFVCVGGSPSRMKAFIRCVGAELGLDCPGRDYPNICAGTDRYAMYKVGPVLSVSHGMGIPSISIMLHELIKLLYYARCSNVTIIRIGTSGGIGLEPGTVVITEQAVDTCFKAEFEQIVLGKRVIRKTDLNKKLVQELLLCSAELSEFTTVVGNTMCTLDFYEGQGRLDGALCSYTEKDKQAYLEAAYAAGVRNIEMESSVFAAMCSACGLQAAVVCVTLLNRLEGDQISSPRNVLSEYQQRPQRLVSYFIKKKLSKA

Q: For `O=c1[nH]cc(F)c(=O)[nH]1` [5-FU, Fluorouracil], which “PPE symptoms, % of patients” value [1, 8] is on record?
A: Its value is 30%.

Q: What does the source list for `Oc1ncnc2[nH]ncc12` [allopurinol, 1,5-dihydro-4H-pyrazolo[3,4-d]pyrimidin-4-one]?
A: solubility in chloroform and in ether [2]: practically insoluble; solubility in dilute solutions of alkali hydroxides [2]: dissolves; solubility in water and alcohol [2]: very slightly soluble; inhibition of thymidine phosphorylase (TP) [3]: inhibits TP; inhibition of uridine phosphorylase [4]: not uridine phosphorylase; symptoms of PPE following the topical treatment ([5]; 10 patients on 5FU+LV (Mayo or AIO) or capecitabine, 3% cream of example 1, 5 times per day to palms and soles): the symptoms of PPE disappeared; completion of chemotherapy ([5]; 10 patients on 5FU+LV or capecitabine, 3% cream, 5 times per day to palms and soles): completed without any dose reduction or delay in the treatment due to PPE; appearance of PPE ([5]; topical application to cancer patients being treated with chemotherapy (summary statement)): completely avoided the appearance of PPE; NR: no response, % [6, 9]: 50%; PR: Partial remission, % [6, 9]: 50%; TR: total response, % [6, 9]: 50%; patients that had developed PPE in whom chemotherapy was completed as planned [6, 10]: 86%; toxic effects associated to the topical treatment [6, 10]: No toxics effects; CR: complete remission, % [6, 11]: 80%; NR: no response, % [6, 11]: 0%; PR: Partial remission, % [6, 11]: 20%; TR: total response, % [6, 11]: 100%; CR: complete remission, % [6, 12]: 62.5%^; NR: no response, % [6, 12]: 12.5%; PR: Partial remission, % [6, 12]: 25%; TR: total response, % [6, 12]: 87%; quality of life ([6]; PPE patients treated with the 3% cream): significantly improved; CR: complete remission, % [6, 13]: 66%; NR: no response, % [6, 13]: 13.3%^; PR: Partial remission, % [6, 13]: 20%; TR: total response, % ([6]; all 15 PPE patients, 3% cream 4-5 times a day to hands and feet): 86%; TR: total response, % ([6]; all 15 PPE patients, 3% cream 4-5 times a day to hands and feet, listed as allopiirinol): 86.6%^; CR: complete remission, % [6, 14]: 66.6%^; PR: Partial remission, % [6, 14]: 20.0%^

Q: With `CCCCCOC(=O)Nc1nc(=O)n([C@@H]2O[C@H](C)[C@@H](O)[C@H]2O)cc1F` [Capecitabine] as the compound, how does the “Cumulative dosis with capecitabine until apprearauce of PPE, Median” value ([1]; patients who developed PPE) read?
A: The value was 81.000 mg.

Q: What about the “PPE symptoms, % of patients” value [1, 8] of the same compound?
A: Its value is 66%.

Q: What about the “PPE symptoms, n (of patients treated)” value [1, 8] of the same compound?
A: Its value is 8(12).

Q: And the “PPE symptoms, % of patients” value ([1]; standard chemotherapy, before allopurinol treatment, listed as capecitabine)?
A: The value was 66%.

Q: What about the “incidence of hand-foot syndrome (PPE), all grades” value [7] of the same compound?
A: The value was 49-60%.

Q: And the “incidence of hand-foot syndrome (PPE), severe grades” value [7]?
A: The value was 17%.
